Results from US8969565B2, “Imidazo[1,2-b]pyridazine-based compounds, compositions comprising them, and methods of their use” (Lexicon Pharmaceuticals, Inc., priority 2012, dated 2015).

Target: T1, AAK1 (Homo sapiens, UniProt Q2M2I8)
T1 construct: HA; expressed in transfected cells; host or cells: HEK293F
Test: HEK281 cell-based assay (phospho-mu2 Western blot in transfected HEK293F cells)
Conditions: 3 hours incubation, read-out: CBA IC50
Procedure, shortened: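 After 3 hours at 37° C. with compound (five 3-fold-spaced concentrations, DMEM+0.5% FBS), transiently transfected HEK293F cells expressing full-length human AAK1 and Flag-tagged mu2 were lysed. mu2 phosphorylation was read by anti-phospho-mu2 immunoblot, normalized against total mu2 by anti-Flag blot.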

T1 sequence (Q2M2I8 1-863 isoform Q2M2I8-2): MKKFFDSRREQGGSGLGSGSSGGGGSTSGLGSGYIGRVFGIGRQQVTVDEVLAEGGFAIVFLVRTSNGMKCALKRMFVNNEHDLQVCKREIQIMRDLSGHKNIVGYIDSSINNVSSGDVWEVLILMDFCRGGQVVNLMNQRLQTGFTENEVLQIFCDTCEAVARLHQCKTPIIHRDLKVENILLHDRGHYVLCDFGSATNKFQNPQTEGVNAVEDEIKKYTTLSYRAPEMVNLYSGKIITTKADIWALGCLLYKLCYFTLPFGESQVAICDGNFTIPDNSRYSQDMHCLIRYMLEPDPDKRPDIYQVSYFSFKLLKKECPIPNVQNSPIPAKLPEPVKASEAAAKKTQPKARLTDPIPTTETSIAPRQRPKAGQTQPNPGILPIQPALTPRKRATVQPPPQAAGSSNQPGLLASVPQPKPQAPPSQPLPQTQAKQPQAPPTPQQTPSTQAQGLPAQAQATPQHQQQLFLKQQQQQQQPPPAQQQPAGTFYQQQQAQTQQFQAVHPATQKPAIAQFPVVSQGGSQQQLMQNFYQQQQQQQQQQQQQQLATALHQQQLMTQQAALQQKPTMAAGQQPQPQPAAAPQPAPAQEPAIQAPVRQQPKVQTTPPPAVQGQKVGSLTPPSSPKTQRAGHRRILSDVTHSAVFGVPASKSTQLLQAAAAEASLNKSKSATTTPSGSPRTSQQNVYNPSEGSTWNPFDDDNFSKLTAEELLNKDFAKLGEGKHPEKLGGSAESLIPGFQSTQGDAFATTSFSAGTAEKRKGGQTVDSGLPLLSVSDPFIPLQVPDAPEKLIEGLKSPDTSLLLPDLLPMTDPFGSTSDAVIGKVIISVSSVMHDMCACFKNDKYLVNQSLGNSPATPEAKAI

Row | SMILES | IC50
1 | CC(C)(C)OCCCNc1ccc2ncc(-c3ccc(CN)cc3)n2n1 [3-(4-(aminomethyl)phenyl)-N-(3-(tert-butoxy)propyl)imidazo[1,2-b]pyridazin-6-amine] | ≤ 100 nM
2 | CC(C)(C)CNc1ccc2ncc(-c3ccc(CN)cc3)n2n1 [3-(4-(aminomethyl)phenyl)-N-neopentylimidazo[1,2-b]pyridazin-6-amine] | ≤ 100 nM
3 | CN(CCNc1ccc2ncc(-c3ccc(C(N)=O)cc3)n2n1)C(=O)CC(C)(C)C [4-(6-((2-(N,3,3-trimethylbutanamido)ethyl)amino)imidazo[1,2-b]pyridazin-3-yl)benzamide] | ≤ 100 nM
4 | CC(C)COCCNc1ccc2ncc(-c3ccncc3)n2n1 [N-(2-isobutoxyethyl)-3-(pyridin-4-yl)imidazo[1,2-b]pyridazin-6-amine] | ≤ 1000 nM
5 | NCc1ccc(-c2cnc3ccc(NCCCOC4CCCC4)nn23)cc1 [3-(4-(aminomethyl)phenyl)-N-(3-(cyclopentyloxy)propyl)imidazo[1,2-b]pyridazin-6-amine] | ≤ 100 nM
6 | CC(=O)c1ccc(-c2cnc3ccc(NCCN(C)C(=O)OC(C)(C)C)nn23)s1 [tert-butyl (2-((3-(5-acetylthiophen-2-yl)imidazo[1,2-b]pyridazin-6-yl)amino)ethyl)(methyl)carbamate] | ≤ 10 nM
7 | CC(C)(C)OC(=O)N1CCCC[C@H]1CNc1ccc2ncc(-c3ccc(CN)cc3)n2n1 [(S)-tert-butyl 2-(((3-(4-(aminomethyl)phenyl)imidazo[1,2-b]pyridazin-6-yl)amino)methyl)piperidine-1-carboxylate] | ≤ 10 nM
8 | CNC(=O)c1ccc(-c2cnc3ccc(NCCOC(C)(C)C)nn23)cc1 [4-(6-((2-(tert-butoxy)ethyl)amino)imidazo[1,2-b]pyridazin-3-yl)-N-methylbenzamide] | ≤ 100 nM
9 | CCCCNc1ccc2ncc(-c3ccc(CNCCN)cc3)n2n1 [N1-(4-(6-(butylamino)imidazo[1,2-b]pyridazin-3-yl)benzyl)ethane-1,2-diamine] | ≤ 1000 nM
10 | COc1cnccc1-c1cnc2ccc(NCCOC(C)(C)C)nn12 [N-(2-(tert-butoxy)ethyl)-3-(3-methoxypyridin-4-yl)imidazo[1,2-b]pyridazin-6-amine] | ≤ 100 nM
11 | COc1ccccc1CCNc1ccc2ncc(-c3ccc(CN)cc3)n2n1 [3-(4-(aminomethyl)phenyl)-N-(2-methoxyphenethyl)imidazo[1,2-b]pyridazin-6-amine] | ≤ 10 nM
12 | CC(C)OC(=O)N1CCC[C@H]1CNc1ccc2ncc(-c3ccc(CN)cc3)n2n1 [(S)-isopropyl 2-(((3-(4-(aminomethyl)phenyl)imidazo[1,2-b]pyridazin-6-yl)amino)methyl)pyrrolidine-1-carboxylate] | ≤ 10 nM
13 | COc1ccccc1-c1cnc2ccc(NCCN(C)C(=O)OC(C)(C)C)nn12 [tert-butyl (2-((3-(2-methoxyphenyl)imidazo[1,2-b]pyridazin-6-yl)amino)ethyl)(methyl)carbamate] | ≤ 100 nM
14 | NCc1ccc(-c2cnc3ccc(NCCc4ccc(F)cc4)nn23)cc1 [3-(4-(aminomethyl)phenyl)-N-(4-fluorophenethyl)imidazo[1,2-b]pyridazin-6-amine] | ≤ 1000 nM
15 | CN(CCNc1ccc2ncc(-c3ccc(CC#N)cc3)n2n1)C(=O)OC(C)(C)C [tert-butyl (2-((3-(4-(cyanomethyl)phenyl)imidazo[1,2-b]pyridazin-6-yl)amino)ethyl)(methyl)carbamate] | ≤ 100 nM
16 | CC(=O)c1ccc(-c2cnc3ccc(NCCCN(C)C(=O)OC(C)C)nn23)s1 [isopropyl (3-((3-(5-acetylthiophen-2-yl)imidazo[1,2-b]pyridazin-6-yl)amino)propyl)(methyl)carbamate] | ≤ 100 nM
17 | COc1cnccc1-c1cnc2ccc(NC[C@@H]3CCCN3C(=O)CC(C)C)nn12 [(S)-1-(2-(((3-(3-methoxypyridin-4-yl)imidazo[1,2-b]pyridazin-6-yl)amino)methyl)pyrrolidin-1-yl)-3-methylbutan-1-one] | ≤ 10 nM

Row | SMILES | IC50
18 | CC(=O)c1ccc(-c2cnc3ccc(NCC(C)C)nn23)s1 [1-(5-(6-(isobutylamino)imidazo[1,2-b]pyridazin-3-yl)thiophen-2-yl)ethanone] | ≤ 1000 nM
19 | CN(CCNc1ccc2ncc(-c3ccnc(F)c3)n2n1)C(=O)OC(C)(C)C [tert-butyl (2-((3-(2-fluoropyridin-4-yl)imidazo[1,2-b]pyridazin-6-yl)amino)ethyl)(methyl)carbamate] | ≤ 100 nM
20 | CNC(=O)c1ccc(-c2cnc3ccc(NCCN(C(=O)OC(C)C)C(C)C)nn23)cc1 [isopropyl isopropyl(2-((3-(4-(methylcarbamoyl)phenyl)imidazo[1,2-b]pyridazin-6-yl)amino)ethyl)carbamate] | ≤ 100 nM
21 | CN(CCNc1ccc2ncc(-c3ccc(C#N)cc3)n2n1)C(=O)C(C)(C)C [N-(2-((3-(4-cyanophenyl)imidazo[1,2-b]pyridazin-6-yl)amino)ethyl)-N-methylpivalamide] | ≤ 100 nM
22 | NCc1ccc(-c2cnc3ccc(NCCCc4ccccc4F)nn23)cc1 [3-(4-(aminomethyl)phenyl)-N-(3-(2-fluorophenyl)propyl)imidazo[1,2-b]pyridazin-6-amine] | ≤ 100 nM
23 | CCOc1ccccc1CCNc1ccc2ncc(-c3ccncc3OC)n2n1 [N-(2-ethoxyphenethyl)-3-(3-methoxypyridin-4-yl)imidazo[1,2-b]pyridazin-6-amine] | ≤ 100 nM
24 | CCOC(=O)CCCNc1ccc2ncc(-c3ccc(C(C)=O)s3)n2n1 [Ethyl 4-((3-(5-acetylthiophen-2-yl)imidazo[1,2-b]pyridazin-6-yl)amino)butanoate] | ≤ 100 nM
25 | NCc1ccc(-c2cnc3ccc(NCCc4cccc(F)c4)nn23)cc1 [3-(4-(aminomethyl)phenyl)-N-(3-fluorophenethyl)imidazo[1,2-b]pyridazin-6-amine] | ≤ 100 nM
26 | CC(C)(C)CCNc1ccc2ncc(-c3ccc(CNCCN)cc3)n2n1 [N1-(4-(6-((3,3-dimethylbutyl)amino)imidazo[1,2-b]pyridazin-3-yl)benzyl)ethane-1,2-diamine] | ≤ 1000 nM
27 | NCc1ccc(-c2cnc3ccc(NCCCCF)nn23)cc1 [3-(4-(aminomethyl)phenyl)-N-(4-fluorobutyl)imidazo[1,2-b]pyridazin-6-amine] | ≤ 100 nM
28 | NCc1ccc(-c2cnc3ccc(NCCCc4ccccc4)nn23)cc1 [[3-(4-Aminomethyl-phenyl)-imidazo[1,2-b]pyridazin-6-yl]-(3-phenyl-propyl)-amine] | ≤ 100 nM
29 | NCc1ccc(-c2cnc3ccc(NCCCc4ccc(F)cc4)nn23)cc1 [3-(4-(aminomethyl)phenyl)-N-(3-(4-fluorophenyl)propyl)imidazo[1,2-b]pyridazin-6-amine] | ≤ 100 nM
30 | CCCCNc1ccc2ncc(-c3ccc(C(=O)NCC(C)N)cc3)n2n1 (stereo not drawn) [N-(2-aminopropyl)-4-(6-(butylamino)imidazo[1,2-b]pyridazin-3-yl)benzamide] | ≤ 1000 nM
31 | CCN(CCNc1ccc2ncc(-c3ccncc3OC)n2n1)C(=O)OC(C)C [isopropyl ethyl(2-((3-(3-methoxypyridin-4-yl)imidazo[1,2-b]pyridazin-6-yl)amino)ethyl)carbamate] | ≤ 100 nM
32 | CCCCCNc1ccc2ncc(-c3ccc(CNCCOC)cc3)n2n1 [3-(4-(((2-methoxyethyl)amino)methyl)phenyl)-N-pentylimidazo[1,2-b]pyridazin-6-amine] | ≤ 1000 nM
33 | CC(C)CNc1ccc2ncc(-c3ccc(CN)cc3)n2n1 [3-(4-(aminomethyl)phenyl)-N-isobutylimidazo[1,2-b]pyridazin-6-amine] | ≤ 1000 nM
